According to US12503687B2, “Therapeutic bacteriophage compositions” (priority 2017, dated 2025):
Values joined by “and” are separate entries in the source; they are usually repeats but may differ in a detail not shown here. Equal entries are not always repeated.

System: Staphylococcus aureus strain UNT144-3
Experiment: S. aureus pneumonia model (neutropenic murine lung infection)
Format: in vivo, mice
Settings: 100 mg/kg SC at 2 and 6 hrs post-infection; CFU assessed 24 hr
Procedure: The sensitivity of two S. aureus clinical isolates, UNT109-3 (NRS234, native valve endocarditis) and UNT144-3, that have been previously utilized in animal models of infection, was evaluated vs. the individual phage and the 4-phage panel. […] The virulence of the two strains was then evaluated in the murine lung infection model. Female Hsd:ICR(CD-1) mice (Harlan Laboratories, Houston, TX) were administered 150 and 100 mg/kg cyclophosphamide on day −4 and day −1 prior to infection to render them neutropenic. Groups of 5 mice were then anaesthetized by intraperitoneal (IP) injection of 0.15 mL of a mixture of ketamine HCl (100 mg/kg body weight) plus xylazine (10 mg/kg body weight). Once anaesthetized, mice were infected intranasally by placing drops on the external nares and allowing inhalation of the 50 μl inoculum. Twenty-four hours after infection, mice were euthanized by CO2 inhalation and lungs processed for bacterial titers. Bacterial counts were enumerated on Brain Heart Infusion agar (Difco™ Laboratories)+0.5% activated charcoal (Sigma-Aldrich) plates for ease of recovering and detecting S. aureus (Barr, J. G., et al., J. Clin. Pathol. (1987) 40:372-376). […]
Three phage panel treatment groups were evaluated for efficacy: 2×10^10 PFU/mL per phage, 2×10^9 PFU/mL per phage, and 2×10^8 PFU/mL per phage. […]

SMILES: CN[C@H](CC(C)C)C(=O)N[C@H]1C(=O)N[C@@H](CC(N)=O)C(=O)N[C@H]2C(=O)N[C@H]3C(=O)N[C@H](C(=O)N[C@H](C(=O)O)c4cc(O)cc(O)c4-c4cc3ccc4O)[C@H](O)c3ccc(c(Cl)c3)Oc3cc2cc(c3O[C@@H]2O[C@H](CO)[C@@H](O)[C@H](O)[C@H]2O[C@H]2C[C@](C)(N)[C@H](O)[C@H](C)O2)Oc2ccc(cc2Cl)[C@H]1O [Vancomycin]
- Mean ± SD log10 CFU/Lung Pair: 5.55 log10 CFU/Lung Pair and 5.55 ± 1.1 log10 CFU/Lung Pair
